The source made the active and inactive calls.
What was measured:
Type in all cases: functional, organism-based
[1] = species: Homo sapiens; assay: Decrease in TSH level in diabetic non-obese pateint by ELISA relative to untreated obese insulin-resistant control
[2] = species: Homo sapiens; assay: Effect on TSH level in diabetic obese pateint by ELISA relative to untreated healthy control
[3] = species: Homo sapiens; assay: Effect on FT4 level in diabetic obese pateint by ELISA relative to untreated obese insulin-resistant control
[4] = species: Homo sapiens; assay: Effect on TSH level in diabetic non-obese pateint by ELISA relative to untreated healthy control
[5] = species: Homo sapiens; assay: Effect on FT4 level in diabetic obese pateint by ELISA relative to untreated healthy control
[6] = species: Homo sapiens; assay: Effect on FT4 level in diabetic non-obese pateint by ELISA relative to untreated healthy control
[7] = species: Homo sapiens; assay: Effect on FT4 level in diabetic non-obese pateint by ELISA relative to untreated obese insulin-resistant control

Measured: Activity

CN(C)C(=N)NC(=N)N
active: [1]
inactive: all other assays above

— ChEMBL document CHEMBL3044878, “The interference between metformin treatment and TSH level in euthyroid type 2 diabetic patients” (Med Chem Res, 2013)
